Key:
Assay type in all cases: in vivo
[1] = system: guinea pig model of allergic asthma (ovalbumin-sensitized, airway responsiveness to inhaled histamine); assay: Reversal of allergen-induced AHR in guinea pig model of allergic asthma (reversion protocol); conditions: for effect on allergen-induced AHR after the EAR (histamine PC100): inhalation at 5.5 h after ovalbumin; for effect on allergen-induced AHR after the EAR (histamine PC100) / effect on allergen-induced AHR after the LAR (histamine PC100) / effect on basal airway responsiveness to inhaled histamine (PC100): ABH 25 mM, L- or D-arginine 1 M nebulizer concentration; for effect on allergen-induced AHR after the LAR (histamine PC100): inhalation at 23.5 h after ovalbumin; for effect on basal airway responsiveness to inhaled histamine (PC100): inhaled 15 min, PC100 30 min before and after inhalation
Source text: (§1) Outbred male specified pathogen free Dunkin Hartley guinea pigs (Harlan Heathfield, UK) were used in this example. All animals, weighing approximately 250 g, were actively IgE-sensitized to ovalbumin as described by Van Amsterdam et al. [Agents Actions 1989, 26:48-51]. The animals were operated on 2 weeks after sensitization and used experimentally in weeks 4 and 5 after sensitization. The animals were housed in individual cages in climate controlled animal quarters and given water and food ad libitum, while a 12 h on/12 h off light cycle was maintained. All protocols described in this study were approved by the University of Groningen Committee for Animal Experimentation.
(§2) Airway function was assessed by on-line measurement of pleural pressure (Ppl) under unrestrained conditions as described previously [Santing et al., Pulm Pharmacol 1992, 5:265-272; Meurs et al., Nature Protocols 2006, 1:840-847].
(§3) In short, a small fluid filled latex balloon catheter was surgically implanted inside the thoracic cavity. The free end of the catheter was driven subcutaneously to the neck of the animal, where it was exposed and attached permanently. Via an external fluid filled cannula, the pleural balloon catheter was connected to a pressure transducer (TXX R, Viggo-Spectramed, Bilthoven, Netherlands). Ppl (in cm H2O) was measured continuously using an on-line computer system.
(§4) Allergen and histamine provocations were performed by inhalation of aerosolized solutions. These provocations were carried out in a specially designed perspex cage of 9 l, in which the guinea pigs could move freely as previously described [Santing et al.; Meurs et al., both supra]. A DeVilbiss nebulizer (type 646) driven by an airflow of 8 l/min provided the aerosol with an output of 0.33 ml/min. The animals were habituated to the experimental conditions and the provocations procedure at least one week after surgery, when preoperative weight was restored, as described previously [Meurs et al, supra].
(§5) On the experimental days following the habituation procedure, allergen and/or histamine provocations were performed as described below. All provocations were preceded by an adaptation period of at least 30 min, followed by two consecutive control provocations with saline, each provocation lasting 3 min and separated by 7 min intervals. A baseline Ppl value was calculated by averaging the Ppl values from the last 20 min of the adaptation period.
(§6) In order to assess the airway reactivity for histamine, provocations with increasing concentration steps (6.25, 12.5, 25, 50, 75, 100 and 125 μg/ml) in saline were performed. Histamine provocations lasted 3 min and were separated by 7 min intervals. Animals were challenged until Ppl was increased by more than 100% above baseline for at least 3 consecutive minutes. The concentration of histamine causing a 100% increase of Ppl (PC 100) was derived by linear interpolation of the concentration Ppl curve and was used as an index for airway reactivity towards histamine. Ppl returned to baseline within 15 min after the last histamine provocation.
(§7) Allergen provocations were performed by inhalation of increasing concentrations of 0.5, 1.0 or 3.0 mg/ml ovalbumin in saline and were discontinued when the first signs of respiratory distress were observed and an increase in Ppl of more than 100% was reached.
On two different occasions, separated by one week interval, guinea pigs were treated either with vehicle (saline) or drug (ABH, L-arginine or D-arginine), to establish the acute effects of these drugs on basal airway responsiveness to histamine as well as on allergen-induced airway hyperresponsiveness (AHR) after the EAR and the LAR (FIG. 2).
On the first experimental day, saline- or drug induced effects on basal histamine reactivity were established. Thirty minutes after the assessment of the basal histamine PC100, an aerosol of saline (control) or 25 mM ABH, 1.0 M L-arginine or 1.0 M D-arginine (nebulizer concentrations) was inhaled for 15 min. […]

[2] = system: guinea pig model of allergic asthma (ovalbumin-sensitized); assay: Prevention of allergen-induced EAR, LAR and AHR by pretreatment, equal allergen dose for both treatment groups (protection protocol, second experiment)
Source text: as §1, §2, §3, §4, §5, §6, §7
In a second experiment, animals were challenged once with allergen. On the first experimental day, the basal histamine PC100 was assessed. The next day, animals were pretreated with either saline or ABH (25 mM; nebulizer concentration) 0.5 h before and 8 h after allergen inhalation. The ABH pretreated animals were challenged with the same allergen dose that caused airway obstruction in the saline treated guinea pigs. […]

[3] = system: guinea pig model of allergic asthma (ovalbumin-sensitized); assay: Prevention of allergen-induced AHR by pretreatment, animals challenged with increasing allergen doses until obstruction (protection protocol)
Source text: as §1, §2, §3, §4, §5, §6, §7
On the first experimental day, the basal histamine PC100 was assessed. The next day, saline was inhaled for 15 min, 0.5 h prior to and at 8 h after allergen inhalation, and histamine PC100 measurements were performed 6 and 24 h post allergen challenge. One week later, the same protocol was repeated with inhalations of either 25 mM ABH (nebulizer concentration) or saline at t=−0.5 and 8 h. All animals were challenged with increasing doses of allergen (0.5, 1 and 3 mg/ml) until obstruction. […]

[4] = ABH 25 mM nebulizer 0.5 h before and 8 h after allergen, equal allergen dose, mean ± SEM

Row | SMILES | allergen-induced AHR after the EAR, PC100 ratio pre/post challenge ([1]; after ABH inhalation (25 mM nebulizer) at 5.5 h after ovalbumin, PC100 at 6 h, from 4.77±0.56-fold before inhalation, P<0.001) | allergen-induced AHR after the LAR, PC100 ratio pre/post challenge ([1]; after ABH inhalation (25 mM nebulizer) at 23.5 h after ovalbumin, PC100 at 24 h, from 1.95±0.23-fold before inhalation, P<0.10) | effect on allergen-induced AHR after the EAR (histamine PC100) [1] | effect on allergen-induced AHR after the LAR (histamine PC100) [1] | effect on basal airway responsiveness to inhaled histamine (PC100) [1] | AUC EAR (% change in Ppl time response curve between 0 and 5 h after allergen exposure) [2, 4] | AUC LAR (% change in Ppl time response curve between 8 and 24 h after allergen exposure) [2, 4] | initial peak response in Ppl after allergen challenge (allergen-induced acute bronchial obstruction) ([2]; ABH 25 mM nebulizer versus saline at the same allergen dose, P<0.01) | allergen-induced AHR after the LAR ([2]; equal allergen dose, saline treated 1.68±0.14-fold, P<0.005) | allergen-induced AHR after the EAR ([2]; equal allergen dose, saline treated 4.14±0.59-fold, P<0.01) | AHR100 (PC100 ratio pre/post allergen challenge) after EAR ([2]; histamine PC100 24 h before and 6 h after allergen, ABH 25 mM nebulizer 0.5 h before and 8 h after allergen, equal allergen dose) | AHR100 (PC100 ratio pre/post allergen challenge) after LAR ([2]; histamine PC100 24 h before and 24 h after allergen, ABH 25 mM nebulizer 0.5 h before and 8 h after allergen, equal allergen dose) | protection against the AHR after the EAR as compared to saline control ([3]; 25 mM ABH 0.5 h before allergen challenge) | allergen-induced AHR after the LAR, PC100 ratio pre/post challenge ([3]; ABH 25 mM nebulizer 0.5 h before and 8 h after allergen, challenged until obstruction, saline control 2.08±0.31-fold, P<0.005) | allergen-induced AHR after the EAR, PC100 ratio pre/post challenge ([3]; ABH 25 mM nebulizer 0.5 h before and 8 h after allergen, challenged until obstruction, saline control week 1 6.33±1.30-fold, P<0.05) | fold higher ovalbumin needed to induce airways obstruction compared to saline treatment ([3]; ABH week 2 versus saline of the same animals week 1) | occurrence of AHR after the LAR ([3]; additional inhalation of 25 mM ABH at 8 h after allergen challenge) | ovalbumin dose needed to induce airways obstruction ([3]; after pretreatment with ABH 25 mM nebulizer in week 2, saline in same animals week 1 0.04±0.01 mg, P<0.01)
1 | N[C@@H](CCCCB(O)O)C(=O)O [ABH, 2(S)-amino-6-boronohexanoic acid] | 2.04±0.34 fold | 1.56±0.47 fold | reversed the allergen-induced AHR after the EAR | trend towards a reduction | without effect | 983 ± 345 % × 5 min | 1697 ± 1043 % × 5 min | highly significant reduction | 1.02±0.02 fold | 1.58±0.24 fold | 1.58 ± 0.24 | 1.02 | significant protection | 1.41±0.25 fold | 3.05±0.51 fold | 32.8 fold | almost completely prevented | 1.31 ± 0.69 mg
2 | N=C(N)NCCC[C@H](N)C(=O)O [L-arginine] |  |  | reversed to a similar extent as with ABH | reversed to a similar extent as with ABH | did not affect |  |  |  |  |  |  |  |  |  |  |  |  | 
3 | N=C(N)NCCC[C@@H](N)C(=O)O [D enantiomer of arginine, D-arginine] |  |  | did not affect | did not affect | did not affect |  |  |  |  |  |  |  |  |  |  |  |  | 
